In patent publication US11566030B2, “Substituted 2,6-dihydropyrrolo[3,4-c]pyrazoles as pyruvate kinase activators” (priority 2021, dated 2023):
Where two headings read alike, the source gives them in different places.

Target: T1, Human pyruvate kinase R (PKR) (Homo sapiens, UniProt P30613)
T1 construct: Human pyruvate kinase R (PKR), residues 14-574; 6xHis-8xArg-SUMO (N, cleaved yes); host or cells: E. coli
Assay: Biochemical assay for activation of pyruvate kinase R (Kinase-Glo luminescence, ATP generation)
Conditions: for Emax: read-out: PKR % activation, maximal activation level achieved with each compound relative to the activation level achieved by AG-348 @ 10 μM
How it was run: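 Recombinant human PKR (residues 14-574) expressed in E. coli with His-Arg-SUMO tag, tag cleaved, purified by Ni-NTA, anion exchange and size exclusion. Activation read as ATP generation by Kinase-Glo luminescence.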

[1] = PKR AC50 (nM), 0.1 nM PKR, 0.3 mM ADP, 0.1 mM PEP, 1% DMSO

T1 sequence (P30613 14-574): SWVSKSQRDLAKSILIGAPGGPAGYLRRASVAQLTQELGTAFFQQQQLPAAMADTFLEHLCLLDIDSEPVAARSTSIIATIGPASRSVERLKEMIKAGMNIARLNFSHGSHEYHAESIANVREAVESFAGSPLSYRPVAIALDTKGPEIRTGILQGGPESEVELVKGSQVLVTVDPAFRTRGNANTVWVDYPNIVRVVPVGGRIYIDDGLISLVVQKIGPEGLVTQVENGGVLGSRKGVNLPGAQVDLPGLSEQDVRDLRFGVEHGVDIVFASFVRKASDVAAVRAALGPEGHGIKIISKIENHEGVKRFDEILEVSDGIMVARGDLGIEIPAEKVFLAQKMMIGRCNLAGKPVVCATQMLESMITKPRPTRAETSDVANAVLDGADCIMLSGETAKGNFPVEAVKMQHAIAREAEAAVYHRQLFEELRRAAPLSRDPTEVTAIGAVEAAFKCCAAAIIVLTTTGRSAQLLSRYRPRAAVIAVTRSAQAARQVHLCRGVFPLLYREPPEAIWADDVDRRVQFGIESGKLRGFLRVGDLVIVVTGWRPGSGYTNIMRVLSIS

SMILES	AC50 [1] [nM]	Emax [%]	AC50 [nM]
O=C([C@H](CO)c1ccccc1F)N1Cc2cn(S(=O)(=O)c3ccn(CC(F)(F)F)n3)nc2C1 [Compound 62, (2S)-2-(2-fluorophenyl)-3-hydroxy-1-{2-[1-(2,2,2-trifluoroethyl)pyrazol-3-ylsulfonyl]-4H,6H-pyrrolo[3,4-c]pyrazol-5-yl}propan-1-one]	70	60	–
O=C([C@H](CO)c1ccccc1Cl)N1Cc2cn(S(=O)(=O)c3ccn(CC(F)(F)F)n3)nc2C1 [Compound 63, (2S)-2-(2-chlorophenyl)-3-hydroxy-1-[2-[1-(2,2,2-trifluoroethyl)pyrazol-3-ylsulfonyl]-4H,6H-pyrrolo[3,4-c]pyrazol-5-yl]propan-1-one]	50	85	–
O=C(N1Cc2cn(S(=O)(=O)c3ccn(CC(F)F)n3)nc2C1)C1(c2ncccc2Cl)COC1 [Compound 64, 3-chloro-2-(3-{2-[1-(2,2-difluoroethyl)pyrazol-3-ylsulfonyl]-4H,6H-pyrrolo[3,4-c]pyrazole-5-carbonyl}oxetan-3-yl)pyridine]	12	100	–
O=C(N1Cc2cn(S(=O)(=O)c3ccn(CC(F)(F)F)n3)nc2C1)C1(c2ncccc2Cl)COC1 [Compound 65, (3-(3-chloropyridin-2-yl)oxetan-3-yl)(2-((1-(2,2,2-trifluoroethyl)-1H-pyrazol-3-yl)sulfonyl)-2,6-dihydropyrrolo[3,4-c]pyrazol-5(4H)-yl)methanone]	110	42	–
Cc1cn(CC(F)(F)F)nc1S(=O)(=O)n1cc2c(n1)CN(C(=O)[C@H](CO)c1ccccc1)C2 [Compound 66, (2S)-3-hydroxy-1-{2-[4-methyl-1-(2,2,2-trifluoroethyl)pyrazol-3-ylsulfonyl]-4H,6H-pyrrolo[3,4-c]pyrazol-5-yl}-2-phenylpropan-1-one]	120	0	–
Cc1cn(CC(F)(F)F)nc1S(=O)(=O)n1cc2c(n1)CN(C(=O)[C@@H](CO)c1ccccc1)C2 [Compound 67, (2R)-3-hydroxy-1-{2-[4-methyl-1-(2,2,2-trifluoroethyl)pyrazol-3-ylsulfonyl]-4H,6H-pyrrolo[3,4-c]pyrazol-5-yl}-2-phenylpropan-1-one]	–	0	–
Cc1cn(CC(F)(F)F)nc1S(=O)(=O)n1cc2c(n1)CN(C(=O)[C@H](CO)c1ccccc1F)C2 [Compound 68, (2S)-2-(2-fluorophenyl)-3-hydroxy-1-{2-[4-methyl-1-(2,2,2-trifluoroethyl)pyrazol-3-ylsulfonyl]-4H,6H-pyrrolo[3,4-c]pyrazol-5-yl}propan-1-one]	2100	9	–
Cc1cn(CC(F)(F)F)nc1S(=O)(=O)n1cc2c(n1)CN(C(=O)[C@@H](CO)c1ccccc1F)C2 [Compound 69, (2R)-2-(2-fluorophenyl)-3-hydroxy-1-{2-[4-methyl-1-(2,2,2-trifluoroethyl)pyrazol-3-ylsulfonyl]-4H,6H-pyrrolo[3,4-c]pyrazol-5-yl}propan-1-one]	15	4	–
Cc1cn(CC(F)(F)F)nc1S(=O)(=O)n1cc2c(n1)CN(C(=O)[C@H](CO)c1ccccc1Cl)C2 [Compound 70, (2S)-2-(2-chlorophenyl)-3-hydroxy-1-{2-[4-methyl-1-(2,2,2-trifluoroethyl)pyrazol-3-ylsulfonyl]-4H,6H-pyrrolo[3,4-c]pyrazol-5-yl}propan-1-one]	82	36	–
Cc1cn(CC(F)(F)F)nc1S(=O)(=O)n1cc2c(n1)CN(C(=O)[C@@H](CO)c1ccccc1Cl)C2 [Compound 71, (2R)-2-(2-chlorophenyl)-3-hydroxy-1-{2-[4-methyl-1-(2,2,2-trifluoroethyl)pyrazol-3-ylsulfonyl]-4H,6H-pyrrolo[3,4-c]pyrazol-5-yl}propan-1-one]	3900	30	–
O=C([C@H](CO)c1ccccc1)N1Cc2cn(S(=O)(=O)c3ccn(CC(F)F)n3)nc2C1 [Compound 72, (2S)-1-{2-[1-(2,2-difluoroethyl)pyrazol-3-ylsulfonyl]-4H,6H-pyrrolo[3,4-c]pyrazol-5-yl}-3-hydroxy-2-phenylpropan-1-one]	–	98	9.6

Results, then the compound that gave them:

AC50 [1] [nM]	Emax [%]	AC50 [nM]	SMILES
17	66	–	O=C([C@H](CO)c1cccc(F)c1F)N1Cc2cn(S(=O)(=O)c3cnn(CC(F)(F)F)c3)nc2C1 [Compound 73, (2S)-2-(2,3-difluorophenyl)-3-hydroxy-1-{2-[1-(2,2,2-trifluoroethyl)pyrazol-4-ylsulfonyl]-4H,6H-pyrrolo[3,4-c]pyrazol-5-yl}propan-1-one]
440	72	–	O=C([C@@H](CO)c1cccc(F)c1F)N1Cc2cn(S(=O)(=O)c3cnn(CC(F)(F)F)c3)nc2C1 [Compound 74, (2R)-2-(2,3-difluorophenyl)-3-hydroxy-1-{2-[1-(2,2,2-trifluoroethyl)pyrazol-4-ylsulfonyl]-4H,6H-pyrrolo[3,4-c]pyrazol-5-yl}propan-1-one]
0.51	3	–	Cc1cn(CC(F)(F)F)nc1S(=O)(=O)n1cc2c(n1)CN(C(=O)C1(c3ncccc3Cl)COC1)C2 [Compound 75, (3-(3-chloropyridin-2-yl)oxetan-3-yl)(2-((4-methyl-1-(2,2,2-trifluoroethyl)-1H-pyrazol-3-yl)sulfonyl)-2,6-dihydropyrrolo[3,4-c]pyrazol-5(4H)-yl)methanone]
3800	3	–	Cc1cn(CC(F)F)nc1S(=O)(=O)n1cc2c(n1)CN(C(=O)[C@H](CO)c1ccccc1)C2 [Compound 76, (2S)-1-{2-[1-(2,2-difluoroethyl)-4-methylpyrazol-3-ylsulfonyl]-4H,6H-pyrrolo[3,4-c]pyrazol-5-yl}-3-hydroxy-2-phenylpropan-1-one]
0.51	16	–	Cc1cn(CC(F)F)nc1S(=O)(=O)n1cc2c(n1)CN(C(=O)[C@@H](CO)c1ccccc1)C2 [Compound 77, (2R)-1-{2-[1-(2,2-difluoroethyl)-4-methylpyrazol-3-ylsulfonyl]-4H,6H-pyrrolo[3,4-c]pyrazol-5-yl}-3-hydroxy-2-phenylpropan-1-one]
–	32	7.1	Cc1cn(CC(F)F)nc1S(=O)(=O)n1cc2c(n1)CN(C(=O)[C@H](CO)c1ccccc1F)C2 [Compound 78, (2S)-1-{2-[1-(2,2-difluoroethyl)-4-methylpyrazol-3-ylsulfonyl]-4H,6H-pyrrolo[3,4-c]pyrazol-5-yl}-2-(2-fluorophenyl)-3-hydroxypropan-1-one]
–	33	550	Cc1cn(CC(F)F)nc1S(=O)(=O)n1cc2c(n1)CN(C(=O)[C@@H](CO)c1ccccc1F)C2 [Compound 79, (2R)-1-{2-[1-(2,2-difluoroethyl)-4-methylpyrazol-3-ylsulfonyl]-4H,6H-pyrrolo[3,4-c]pyrazol-5-yl}-2-(2-fluorophenyl)-3-hydroxypropan-1-one]
–	73	8.9	Cc1cn(CC(F)F)nc1S(=O)(=O)n1cc2c(n1)CN(C(=O)[C@H](CO)c1ccccc1Cl)C2 [Compound 80, (2S)-2-(2-chlorophenyl)-1-(2-{[1-(2,2-difluoroethyl)-4-methyl-1H-pyrazol-3-yl]sulfonyl}-2H,4H,5H,6H-pyrrolo[3,4-c]pyrazol-5-yl)-3-hydroxypropan-1-one]
–	62	500	Cc1cn(CC(F)F)nc1S(=O)(=O)n1cc2c(n1)CN(C(=O)[C@@H](CO)c1ccccc1Cl)C2 [Compound 81, (2R)-2-(2-chlorophenyl)-1-{2-[1-(2,2-difluoroethyl)-4-methylpyrazol-3-ylsulfonyl]-4H,6H-pyrrolo[3,4-c]pyrazol-5-yl}-3-hydroxypropan-1-one]
8.3	19	–	Cc1cn(CC(F)F)nc1S(=O)(=O)n1cc2c(n1)CN(C(=O)C1(c3ncccc3Cl)COC1)C2 [Compound 82, 3-chloro-2-(3-{2-[1-(2,2-difluoroethyl)-4-methylpyrazol-3-ylsulfonyl]-4H,6H-pyrrolo[3,4-c]pyrazole-5-carbonyl}oxetan-3-yl)pyridine]
–	69	15	O=C([C@H](CO)c1ccccc1)N1Cc2cn(S(=O)(=O)c3cnn(CC(F)(F)F)c3)nc2C1 [Compound 83, (2S)-3-hydroxy-2-phenyl-1-{2-[1-(2,2,2-trifluoroethyl)pyrazol-4-ylsulfonyl]-4H,6H-pyrrolo[3,4-c]pyrazol-5-yl}propan-1-one]
–	73	2500	O=C([C@@H](CO)c1ccccc1)N1Cc2cn(S(=O)(=O)c3cnn(CC(F)(F)F)c3)nc2C1 [Compound 84, (2R)-3-hydroxy-2-phenyl-1-{2-[1-(2,2,2-trifluoroethyl)pyrazol-4-ylsulfonyl]-4H,6H-pyrrolo[3,4-c]pyrazol-5-yl}propan-1-one]
–	59	–	Cc1nn(CC(F)F)c(C)c1S(=O)(=O)n1cc2c(n1)CN(C(=O)[C@H](CO)c1ccccc1)C2 [Compound 87, (2S)-1-[2-[1-(2,2-difluoroethyl)-3,5-dimethylpyrazol-4-ylsulfonyl]-4H,6H-pyrrolo[3,4-c]pyrazol-5-yl]-3-hydroxy-2-phenylpropan-1-one]
680	0	–	Cc1nn(CC(F)F)c(C)c1S(=O)(=O)n1cc2c(n1)CN(C(=O)[C@@H](CO)c1ccccc1)C2 [Compound 88, (2R)-1-[2-[1-(2,2-difluoroethyl)-3,5-dimethylpyrazol-4-ylsulfonyl]-4H,6H-pyrrolo[3,4-c]pyrazol-5-yl]-3-hydroxy-2-phenylpropan-1-one]
–	105	1200	Cc1c(S(=O)(=O)n2cc3c(n2)CN(C(=O)[C@@H](CO)c2ccccc2)C3)cnn1CC(F)F [Compound 89, (R)-1-(2-((1-(2,2-difluoroethyl)-5-methyl-1H-pyrazol-4-yl)sulfonyl)-2,6-dihydropyrrolo[3,4-c]pyrazol-5(4H)-yl)-3-hydroxy-2-phenylpropan-1-one]
